Measurements published in patent US9604932B2 (priority 2013, dated 2017).

Legend:
[1] = cited from earlier work
[2] = Plasma pharmacokinetics in sheep (release of R-100 from R-107), LCMS; format: in vivo; conditions: IV R-100 20 mg/kg bolus
Description: In the following two experiments, the pharmacokinetic of releasing R-100 from R-107, via R-105 that is the reduced form of R-100, was studied in vivo according to the protocol described herein.
100 μl aliquots plasma obtained from R-107-treated sheep or pig were thawed and 200 μl ice-cold ethanol was added to each 100 μl sample to precipitate protein. Samples were then vortexed, placed on ice for 10 minutes, and then spun down at room temperature for 15 minutes. A first 100 μl supernatant from each spun sample was withdrawn and placed in a labeled HPLC micro vial to which 300 μl MPA (LC mobile phase A) was added, and the vial contents were then mixed and submitted for LCMS analysis (kept at 4° C.). The concentration of R-107 was measured in this sample as was the concentration of R105. A second 100 μl supernatant from each spun sample was added to a labelled HPLC micro vial to which 300 μl MPA and 2 μl of Reducing solution (ascorbic acid, 1.0 mg/ml in water) were added. These vials were vortexed; incubated at 50° C. for 1 hour with gentle shaking; and were then cooled to 4° C. and submitted for LCMS analysis. This sample was analyzed for R105, i.e., reduced form of R-100, and the amount measured thus represents the sum of R-100 and R-105 originally present in the plasma. The concentration of R-100 can be calculated from that of the R-105 in the second sample minus that of R-105 in the first sample. However, the concentrations of R-105 were seen to be low (approximately 10% or less of those of R-100) and so the results reported below as R-100 are not corrected for R-105.
Sets of standards (R-100, R-105 and R-107) were prepared by spiking individually in pig plasma. 100 μl aliquots of these spiked plasma samples, after thawing, were included in the above extraction protocol.
Analysis method were carried out with an Agilent HPLC stack, with column eluate directed, via a diverter valve, into the source of an AB Sciex ‘Qstar Elite’ Hybrid TOF, high-resolution mass spectrometer. LC column: Phenomenex Kinetex C18 2.6u 100A, 2.1×50 mm. LC mobile phase A: H2O with 0.02% trifluoroacetic acid (TFA), 0.1% formic acid (HOF); Phase B: acetonitrile (ACN) with 0.02% TFA, 0.1% HOF. Mobile phase flow rate=500 μl/min. Injection size: 8 μl, via Agilent 1100 u-WPS autosampler. […]

CC1(C)CC(CO[N+](=O)[O-])C(C)(C)N1[O] (centres unmarked) [R-100, 3-nitratomethyl-2,2,5,5-tetramethylpyrrolidinyloxy, reference compound]
Solubility in organic solvents [1]: soluble in certain organic solvents such as dimethyl sulfoxide (DMSO) | Solubility in water [1]: highly insoluble in water | R-100 in plasma ([2]; 0 hrs post dose): 0 µg/mL | R-100 in plasma ([2]; 0.08 hrs post dose): 6.72 µg/mL | R-100 in plasma ([2]; 0.17 hrs post dose): 6.11 µg/mL | R-100 in plasma ([2]; 0.25 hrs post dose): 5.31 µg/mL | R-100 in plasma ([2]; 0.5 hrs post dose): 2.72 µg/mL | R-100 in plasma ([2]; 1 hrs post dose): 1.63 µg/mL | R-100 in plasma ([2]; 2 hrs post dose): 0.7 µg/mL | R-100 in plasma ([2]; 4 hrs post dose): 0.28 µg/mL | R-100 in plasma ([2]; 8 hrs post dose): 0.03 µg/mL
